Patent publication US7417045B2, “Heterocyclic substituted pyridine or phenyl compounds with CXCR3 antagonist activity” (Schering Corporation, priority 2005, dated 2008)

Each compound was assayed against T1, human CXCR3 (N-delta 4) (Homo sapiens, UniProt P49682) (assay: Human CXCR3 (N-delta 4) Scintillation Proximity Assay (SPA), [125I] IP-10 binding). Conditions: IC50 rating; [125I] IP-10 displacement, Ba/F3-hCXCR3 (N-delta 4) membranes.
T1 construct: CD8 leader (N); Flag tag; expressed in transfected cells; membranes
T1 sequence (P49682 5-368 limits assumed): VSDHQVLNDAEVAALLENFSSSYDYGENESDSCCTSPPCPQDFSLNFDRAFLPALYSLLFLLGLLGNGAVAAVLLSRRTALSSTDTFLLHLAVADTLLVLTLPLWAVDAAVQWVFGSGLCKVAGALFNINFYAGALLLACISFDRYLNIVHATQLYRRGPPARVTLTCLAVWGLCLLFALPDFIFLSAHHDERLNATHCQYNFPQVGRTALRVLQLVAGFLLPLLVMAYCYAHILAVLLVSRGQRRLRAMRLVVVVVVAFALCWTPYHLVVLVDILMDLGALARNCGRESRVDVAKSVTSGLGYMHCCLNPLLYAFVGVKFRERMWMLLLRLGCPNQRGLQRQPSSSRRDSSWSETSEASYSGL
Procedure, shortened: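 Membranes from Ba/F3 cells stably expressing Flag-tagged human CXCR3 (N-delta 4), 2 μg per point, precoupled 1 h to WGA SPA beads in HEPES buffer with CaCl2, MgCl2, NaCl, 1.0% BSA. Compounds titrated with 25 pM [125I] IP-10; bound label counted after 3 hr at room temperature.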

Structure (SMILES) | IC50 [nM]
CC[C@H]1CN(c2ncc(-c3ncc[nH]3)cc2Cl)CCN1C1CCN(Cc2ccc(C#CCOC)cc2)CC1 [Compound 14] | < 25
CC[C@H]1CN(c2ncc(-c3ncc[nH]3)cc2Cl)CCN1C1CCN([C@H](C)c2ccc(Cl)cc2)CC1 [Compound 5] | < 25
CC[C@H]1CN(c2ncc(-c3ncc[nH]3)cc2Cl)CCN1C1CCN(Cc2ccc(I)cc2)CC1 [Compound 3] | < 25
C[C@H]1CN(c2ncc(C3=NCCN3)cc2Cl)CCN1C1CCN(Cc2ccc(Cl)cc2)CC1 [Compound 65] | < 25
CC[C@H]1CN(c2ncc(C3=NCCN3)cc2Cl)CCN1C1CCN([C@H](CO)c2ccc(Cl)cc2)CC1 [Compound 64] | < 25
CC[C@H]1CN(c2ncc(-c3nnc[nH]3)cc2Cl)CCN1C1CCN(Cc2ccc(Cl)cc2F)CC1 [Compound 69] | < 25
CC[C@H]1CN(c2ncc(-c3ncc[nH]3)cc2Cl)CCN1C1CCN([C@@H](CO)c2ccc(Cl)cc2)CC1 [Compound 10] | < 25
CC[C@H]1CN(c2ncc(-c3ncc[nH]3)cc2Cl)CCN1C1CCN(C(=O)c2ccc(Cl)cc2C#N)CC1 [Compound 62] | < 25
CC[C@H]1CN(c2ncc(C3=NCCN3)cc2Cl)CCN1C1CCN(C(=O)c2ccc(Cl)cc2)CC1 [Compound 58] | < 25
CC[C@H]1CN(c2ncc(C3=NCCN3)cc2Cl)CCN1C1CCN(C(CO)c2ccc(Cl)cc2)CC1 (stereo partly drawn) [Compound 15] | < 25
CC[C@H]1CN(c2ncc(-c3ncc[nH]3)cc2Cl)CCN1C1CCN(Cc2ccc(-c3csnn3)cc2)CC1 [Compound 22] | < 25
CC[C@H]1CN(c2ncc(-c3ncc[nH]3)cc2Cl)CCN1C1CCN(Cc2ccc(Cl)cc2C(=O)O)CC1 [Compound 43] | < 25
CC[C@H]1CN(c2ncc(-c3ncc[nH]3)cc2Cl)CCN1C1CCN([C@@H](C(=O)OC)c2ccc(Cl)cc2)CC1 [Compound 35] | < 25
CC[C@H]1CN(c2ncc(C3=NCCN3)cc2Cl)CCN1C1CCN(Cc2ccc(F)cc2)CC1 [Compound 11] | < 25
CC[C@H]1CN(c2ncc(C3=NCCN3)cc2Cl)CCN1C1CCN(Cc2ccc(OC(F)(F)F)cc2)CC1 [Compound 12] | < 25

Continued, values first:

IC50 [nM] | Structure (SMILES)
> 100 | CC[C@H]1CN(c2ncc(-c3ncc[nH]3)cc2Cl)CCN1[C@H]1CCN(Cc2ccc(Cl)cc2C(=O)NC)C[C@@H]1O [Compound 172]
< 25 | CC[C@H]1CN(c2ncc(-c3ncc[nH]3)cc2Cl)CCN1C1CCN(C(=O)c2ccc(Cl)cc2I)CC1 [Compound 86]
> 100 | CC[C@H]1CN(c2ncc(-c3nccn3CCC(=O)c3ccc(Cl)cc3)cc2Cl)CCN1C1CCN(CCC(=O)c2ccc(Cl)cc2)CC1 [Compound 165]
> 100 | CC[C@H]1CN(c2ncc(C3=NCCN3C(=O)c3ccc(C#N)cc3)cc2Cl)CCN1C1CCN(C(=O)c2ccc(C#N)cc2)CC1 [Compound 161]
< 25 | CC[C@H]1CN(c2ncc(C3=NC(C)CN3)cc2Cl)CCN1C1CCN(C(=O)c2ccc(Cl)cc2)CC1 (stereo partly drawn) [Compound 72]
> 100 | CCOC1(C)NN=C(c2cnc(N3CCN(C4CCN(C(=O)c5ccc(Br)cc5)CC4)[C@@H](CC)C3)c(Cl)c2)O1 (stereo partly drawn) [Compound 158]
< 25 | CC[C@H]1CN(c2ncc(C3=NCCN3)cc2Cl)CCN1C1CCN(C(=O)c2ccc(Cl)cc2C(N)=NO)CC1 [Compound 93]
> 100 | CC[C@H]1CN(c2ncc(-c3ncc[nH]3)cc2Cl)CCN1C1CCN([C@H](C(=O)N(C)C)c2ccc(Cl)cc2)CC1 [Compound 150]
25 to 100 | CC[C@H]1CN(c2ncc(-c3ncc[nH]3)cc2Cl)CCN1C1CCN([C@@H](C(=O)NCC2CC2)c2ccc(Cl)cc2)CC1 [Compound 107]
25 to 100 | CC[C@H]1CN(c2ncc(-c3nnc(C)o3)cc2Cl)CCN1C1CCN(C(=O)c2ccc(Br)cc2)CC1 [Compound 120]
25 to 100 | CC[C@H]1CN(c2ncc(-c3ncc[nH]3)cc2Cl)CCN1C1CCN(C(=O)c2ccc(OC(F)(F)F)cc2)CC1 [Compound 126]
> 100 | CC[C@H]1CN(c2ncc(-c3nnn[nH]3)cc2Cl)CCN1C1CCN(Cc2ccc(Cl)cc2F)CC1 [Compound 169]
